In the supplement of paper PMC10307832:

Assays:
Experiment in all cases: relative viability (nuclei count vs DMSO), 5 days (fraction); higher = more cells survive
AZ505 + Olaparib = compound: C1CCC(CC1)N(CCNCCC2=C3C(=C(C=C2)O)NC(=O)CO3)C(=O)CCNCCC4=CC(=C(C=C4)Cl)Cl [AZ505] + O=C(c1cc(Cc2n[nH]c(=O)c3ccccc23)ccc1F)N1CCN(C(=O)C2CC2)CC1 [Olaparib] (partner 8 µM)
Summary of the method: (§1)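 Nuclei were stained with Hoechst during a one-step fixation (final 0.05% Triton X-100, 1% formaldehyde, 1 ug/ml Hoechst) carried out 5 days after dosing, then counted on 4× images. The cells, lung cancer lines in 1536-well plates, had been dosed by pin tool the day after seeding with one drug alone or a fixed anchor-drug dose plus five library-drug doses (not always all listed) in √10 steps. Relative viability is the nuclei count in treated wells divided by that in vehicle wells, and each value is the median of duplicate plates.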

Dactolisib + Linsitinib = compound: Cn1c(=O)n(-c2ccc(C(C)(C)C#N)cc2)c2c3cc(-c4cnc5ccccc5c4)ccc3ncc21 [Dactolisib] + C[C@]1(O)C[C@@H](c2nc(-c3ccc4ccc(-c5ccccc5)nc4c3)c3c(N)nccn32)C1 [Linsitinib] (partner 1 µM)
Summary of the method: as §1

AZ505 + Alpelisib = compound: C1CCC(CC1)N(CCNCCC2=C3C(=C(C=C2)O)NC(=O)CO3)C(=O)CCNCCC4=CC(=C(C=C4)Cl)Cl [AZ505] + Cc1nc(NC(=O)N2CCC[C@H]2C(N)=O)sc1-c1ccnc(C(C)(C)C(F)(F)F)c1 [Alpelisib] (partner 2 µM)
Summary of the method: as §1

Dactolisib + Bortezomib = compound: Cn1c(=O)n(-c2ccc(C(C)(C)C#N)cc2)c2c3cc(-c4cnc5ccccc5c4)ccc3ncc21 [Dactolisib] + CC(C)C[C@H](NC(=O)[C@H](Cc1ccccc1)NC(=O)c1cnccn1)B(O)O [Bortezomib] (partner 0.002 µM)
Summary of the method: as §1

| Cell Line | relative viability (AZ505 + Olaparib; first compound 0.08 µM) | relative viability (AZ505 + Olaparib; first compound 0.253 µM) | relative viability (AZ505 + Olaparib; first compound 0.8 µM) | relative viability (AZ505 + Olaparib; first compound 2.53 µM) | relative viability (AZ505 + Olaparib; first compound 8 µM) | relative viability (Dactolisib + Linsitinib; first compound 0.002 µM) | relative viability (Dactolisib + Linsitinib; first compound 0.006325 µM) | relative viability (Dactolisib + Linsitinib; first compound 0.02 µM) | relative viability (Dactolisib + Linsitinib; first compound 0.06325 µM) | relative viability (Dactolisib + Linsitinib; first compound 0.2 µM) | relative viability (AZ505 + Alpelisib; first compound 0.08 µM) | relative viability (AZ505 + Alpelisib; first compound 0.253 µM) | relative viability (AZ505 + Alpelisib; first compound 0.8 µM) | relative viability (AZ505 + Alpelisib; first compound 2.53 µM) | relative viability (AZ505 + Alpelisib; first compound 8 µM) | relative viability (Dactolisib + Bortezomib; first compound 0.002 µM) | relative viability (Dactolisib + Bortezomib; first compound 0.006325 µM) | relative viability (Dactolisib + Bortezomib; first compound 0.02 µM) | relative viability (Dactolisib + Bortezomib; first compound 0.06325 µM) | relative viability (Dactolisib + Bortezomib; first compound 0.2 µM) |
| --- | --- | --- | --- | --- | --- | --- | --- | --- | --- | --- | --- | --- | --- | --- | --- | --- | --- | --- | --- | --- |
| BEN | 0.998 | 1.04 | 1.04 | 1.04 | 1.21 | 0.888 | 0.852 | 0.647 | 0.446 | 0.297 | 0.947 | 1.01 | 0.959 | 1.02 | 1.2 | 0.766 | 0.795 | 0.809 | 0.598 | 0.289 |
| NCI-H1666 | 0.736 | 0.812 | 0.721 | 0.731 | 0.764 | 0.939 | 0.865 | 0.776 | 0.506 | 0.42 | 0.899 | 1.01 | 0.867 | 0.999 | 1.05 | 0.859 | 0.756 | 0.722 | 0.392 | 0.404 |
| LC-2-ad | 0.683 | 0.696 | 0.648 | 0.713 | 0.741 | 0.722 | – | 0.751 | 0.488 | 0.565 | 0.774 | 0.797 | 0.832 | 0.957 | 0.877 | 1.09 | – | 1.04 | 0.734 | 0.52 |
| SW 1573 | 0.391 | 0.493 | 0.425 | 0.468 | 0.467 | 0.824 | 0.606 | 0.525 | 0.297 | 0.242 | 0.658 | 0.714 | 0.661 | 0.82 | 0.858 | 1.18 | 0.847 | 0.771 | 0.331 | 0.373 |
| COR-L 105 | 0.405 | 0.657 | 0.698 | 0.715 | 0.554 | 1.17 | 0.653 | 0.948 | 0.362 | 0.312 | 0.897 | 1.06 | 1.02 | 0.954 | 0.954 | 0.784 | 0.888 | 0.553 | 0.28 | 0.274 |
| NCI-H1975 | 0.747 | 0.883 | 0.75 | 0.775 | 0.904 | 1.01 | 0.847 | 0.551 | 0.32 | 0.256 | 0.578 | 0.689 | 0.651 | 0.651 | 0.654 | 0.362 | 0.338 | 0.323 | 0.209 | 0.183 |
| Calu-6 | 0.543 | 0.59 | 0.525 | 0.504 | 0.608 | 0.875 | 0.939 | 0.898 | 0.492 | 0.495 | 0.842 | 1.07 | 0.934 | 0.937 | 0.962 | 1.08 | 1.07 | 1.06 | 0.593 | 0.387 |
| NCI-H1993 | 0.995 | 1.12 | 1.14 | 1.01 | 1.16 | 0.674 | 0.686 | 0.734 | 0.645 | 0.73 | 0.544 | 0.729 | 0.753 | 0.741 | 0.608 | 0.94 | 0.689 | 0.754 | 0.522 | 0.455 |
